From US9464064B2, “HCV helicase inhibitors and methods of use thereof” (University of Kansas, priority 2011, dated 2016)

Target: T1, HCV NS3 helicase NS3h_1b(con1) (Hepatitis C virus genotype 1b, UniProt Q9WMX2)
T1 construct: truncated C-terminally His-tagged NS3 proteins lacking the N-terminal protease, called NS3h; His-tag (C); made in house
Assay: MBHA screen of NCI mechanistic set library at 20 μM (percent inhibition, compound interference)
Format: biochemical
Conditions: compounds at 20 μM; for Inh. (%) (Inhibition): calculated from Equation 1
Procedure, shortened: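 Molecular beacon-based DNA unwinding assay; compounds screened at 20 μM in triplicate, with DMSO-only negative and 500 nM dT20 positive controls. Fluorescence (ex 643/em 670 nm) was read before and 30 min after adding ATP to 1 mM. Percent inhibition came from the change relative to DMSO controls; interference from pre-ATP fluorescence versus DMSO controls.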

[1] = MBHA with DNA substrate, assay interference calculated with Equation 2
[2] = assay interference calculated with Equation 2 (fluorescence vs DMSO-only controls before ATP)

T1 sequence (Q9WMX2 1192-1657): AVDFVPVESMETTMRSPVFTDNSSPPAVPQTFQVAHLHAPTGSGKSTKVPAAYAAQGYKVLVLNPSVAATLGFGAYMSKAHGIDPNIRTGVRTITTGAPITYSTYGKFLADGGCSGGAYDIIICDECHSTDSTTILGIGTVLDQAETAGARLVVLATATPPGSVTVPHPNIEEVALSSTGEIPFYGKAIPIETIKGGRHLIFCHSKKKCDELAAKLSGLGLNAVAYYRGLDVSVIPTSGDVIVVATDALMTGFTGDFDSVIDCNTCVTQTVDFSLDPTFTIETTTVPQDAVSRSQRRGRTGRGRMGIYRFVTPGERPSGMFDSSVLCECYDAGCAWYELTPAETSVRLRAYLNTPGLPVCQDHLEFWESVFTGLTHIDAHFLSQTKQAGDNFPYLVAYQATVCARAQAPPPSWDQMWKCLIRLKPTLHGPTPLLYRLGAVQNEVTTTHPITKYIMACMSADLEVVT

SMILES	Int.* (Ratio) (Interference) [1]	Inh. (%) (Inhibition) (MBHA with DNA substrate)	Inh. (%) (Inhibition) (MBHA with a DNA substrate)	Int.* (Ratio) (Interference) [2]	Inh. (%) (Inhibition) (MBHA with DNA substrate, 20 µM)
COC(=O)Nc1nc2ccc(Br)cc2[nH]1 [Compound 154754]	–	–	7.6	0.91	–
CCN(CC)CCNc1ccc(C)c2sc3ccccc3c(=O)c12.Cl [Compound 14574]	0.85	30.3	–	–	–
CC(=O)O[C@]1(C(C)=O)CC[C@H]2[C@@H]3C[C@H](C)C4=CC(=O)C=C[C@]4(C)[C@@]3(F)[C@@H](O)C[C@@]21C [Compound 47438]	1.18	−12.2	–	–	–
O=[N+]([O-])c1ccc(N=Nc2c(O)[nH]c3ccccc23)c([N+](=O)[O-])c1 [Compound 4810]	1.01	−15.4	–	–	–
Cc1ccc(S(=O)(=O)ON=C2CC(c3ccccc3)N(C)C(c3ccccc3)C2)cc1 (stereo not shown) [Compound 351306]	0.92	25.4	–	–	–
COC(=O)[C@@H]1c2cc3c(c(O)c2[C@@H](OC)C[C@@]1(C)O)C(=O)c1c(O)cc2c(c1C3=O)O[C@@H]1O[C@@]2(C)[C@H](O)[C@@H](N(C)C)[C@@H]1O [Compound 102815]	0.76	−11.4	–	–	–
Nc1ncnc2c([C@@H]3O[C@H](CO)[C@@H](O)[C@H]3O)c[nH]c12 [Compound 352890]	–	–	7.0	0.94	–
N#Cc1cn([C@@H]2O[C@H](CO)[C@@H](O)[C@H]2O)c2ncnc(N)c12 [Compound 63701]	–	–	−3.8	0.98	–
CC(/C=C/C(O)=C1/C(=O)CNC1=O)=C\[C@@H](C)[C@H]1O[C@]2(C)O[C@@H](C(=O)[C@@H]3O[C@@]32C)[C@@H]1C [Compound 107067]	–	–	−6.0	0.90	–
CCC1CN2CCc3cc(OC)c(OC)cc3C2CC1CC1c2cc(OC)c(OC)cc2CCN1C(=O)C1CCCN1C(=O)OCc1ccccc1 (stereo not shown) [Compound 103248]	0.92	−11.6	–	–	–
Nc1nc2c(ncn2[C@@H]2O[C@H](CO)[C@@H](O)[C@H]2O)c(=O)[nH]1 [Compound 19994]	–	–	10.4	1.05	–
Oc1[nH]c2ccccc2c1N=Nc1c(F)c(F)c(F)c(F)c1F [Compound 116535]	0.93	5.9	–	–	–
COc1cc2c(c(O)c1OC)-c1c(cc(OC)c(OC)c1OC)C[C@@H](C)[C@@H](C)C2 [Compound 330515]	0.95	4.3	–	–	–
COc1ccc(O)cc1 [Compound 4960]	–	–	−4.5	0.90	–
C/C1=C\[C@H](C)C[C@H](C)OC(=O)CC(c2ccc(O)cc2)NC(=O)[C@@H](Cc2c(Br)[nH]c3ccccc23)N(C)C(=O)[C@H](C)NC(=O)[C@@H](C)C1 (stereo partly shown) [Compound 613009]	–	–	−21.7	0.94	–
COC(=O)[C@@H]1[C@H](O)[C@H](C)[C@H](O)[C@H](C)/C=C\C=C(/C)C(=O)Nc2c(C)c(OC(C)=O)c3c(c2O)C(=O)C(C)=C2OCOC(=C23)/C(C)=C/[C@@](C)(O)[C@H](O)[C@@H](C)[C@H]1OC(C)=O [Compound 156215]	–	–	−23.4	1.02	–
C(=C/c1nc2ccccc2o1)/c1ccc2c(c1)OCO2 [Compound 176655]	1.08	0.3	–	–	–
CC(C)C(C)C=CC(C)C1CCC2C3=CC=C4CC(O)CCC4(C)C3CCC21C (stereo not shown) [Compound 62791]	0.93	−9.1	–	–	–
CC(=O)N(C)c1ccc(Nc2cc(C)[nH]c3ccc4ncnc4c23)cc1.Cl [Compound 305884]	–	–	8.9	1.04	–
O=C1c2ccccc2C(=O)c2c(O)c(NCCNCCO)cc(O)c21 [Compound 316157]	0.70	36.4	–	–	–
CC[C@@]1(O)C[C@H](O[C@H]2C[C@H](N(C)C)[C@H](O)[C@H](C)O2)c2c(cc3c(c2O)C(=O)c2c(O)ccc(O)c2C3=O)[C@H]1C(=O)OC [Compound 267229]	0.49	31.5	–	–	–
CN1CCN(CCNc2ccc(CO)c3sc4ccccc4c(=O)c23)CC1 [Compound 166381]	–	–	7.6	0.82	–
COC(=O)[C@@]12OC[C@]34[C@H]([C@@H](O)[C@@H]1O)[C@@]1(C)CC(=O)C(O)=C(C)[C@@H]1C[C@H]3OC(=O)[C@H](OC(=O)/C=C(\C)C(C)C)[C@@H]24 [Compound 165563]	0.95	14.6	–	–	–
CCCCCCCCCCCCCCCCCCOCC(COP(=O)([O-])OCC[N+](C)(C)C)OC (stereo not shown) [Compound 324368]	0.85	−15.0	–	–	–
O=C1Nc2c(Cl)cc(Cl)cc2C1=NN=Cc1ccco1 [Compound 329279]	0.94	1.9	–	–	–
CN(C)C(=S)SSC(=S)N(C)C [Compound 1771]	0.98	0.2	–	–	–
CC1=CC(=C(c2ccc(N)cc2)c2ccc(N)cc2)C=CC1=N.Cl [Compound 93739]	0.81	−13.3	–	–	–
Clc1cc2nc[nH]c2cc1Cl [Compound 326397]	1.06	1.6	–	–	–

Second part, the molecule after the results:

Int.* (Ratio) (Interference) [1]	Inh. (%) (Inhibition) (MBHA with DNA substrate)	Inh. (%) (Inhibition) (MBHA with a DNA substrate)	Int.* (Ratio) (Interference) [2]	Inh. (%) (Inhibition) (MBHA with DNA substrate, 20 µM)	SMILES
1.08	1.0	–	–	–	C[C@H](CSC(=O)c1ccccc1)C(=O)N1c2ccccc2C[C@H]1C(=O)O [Compound 604535]
0.92	16.7	–	–	–	CC(=O)/C(C)=N/NC(=O)c1ccccc1O [Compound 635441]
–	–	−20.4	0.96	–	CC[C@@]1(O)C(=O)OCc2c1cc1n(c2=O)Cc2cc3c(N)cccc3nc2-1 [Compound 629971]
–	–	−5.7	1.20	–	O=c1[nH]c2ccc(O)cc2o1 [Compound 603719]
–	–	−22.3	0.87	–	O=C(OCC12CC3CC(CC(C3)C1)C2)c1ccc(NCc2cc(O)ccc2O)cc1 [Compound 689857]
–	–	−22.4	0.95	–	Cc1ccc(Nc2nc(C)c(C(/C=C/c3ccc(/C=C/C(=N\NC(=O)C[n+]4ccccc4)c4sc(Nc5ccc(C)cc5[N+](=O)[O-])nc4C)cc3)=N/NC(=O)C[n+]3ccccc3)s2)c([N+](=O)[O-])c1.Cl [Compound 640342]
1.04	−1.3	–	–	–	CCOC(=O)/N=C(\N)SCc1ccccc1.Cl [Compound 622684]
0.99	−18.2	–	–	–	O=S1(=O)OCCOS(=O)(=O)C1Cc1ccccc1 [Compound 634863]
0.89	1.3	–	–	–	O=C(CCc1ccccc1)On1nnc2ccccc2c1=O [Compound 630374]
0.94	−7.3	–	–	–	Cn1cnc([N+](=O)[O-])c1Sc1nnnn1-c1ccccc1 [Compound 631152]
–	–	−3.2	0.90	–	COC(=O)C(=O)C(C(=O)C(=O)Nc1cc(C)ccc1C)c1nc2ccc(C(=O)c3ccccc3)cc2[nH]c1=O (stereo not shown) [Compound 642040]
0.90	14.6	–	–	–	CCOC(=O)/C(=C/c1ccc(N(C)C)cc1)N(CC)CC [Compound 643774]
0.53	64.3	–	–	–	COc1ccc2c(c1)-c1nn(CCCN(C)C)c3ccc([N+](=O)[O-])c(c13)N2 [Compound 627168]
0.91	−17.7	–	–	–	C=C(C#N)C(=O)OCC(CC)CC.C=C(C#N)C(=O)OCC(CC)CC.CS(C)=O.CS(C)=O.Nc1c(N=Nc2ccc(-c3ccc(N=Nc4cc(S(=O)(=O)[O-])c5ccccc5c4N)cc3)cc2)cc(S(=O)(=O)[O-])c2ccccc12.[Pt+2] [Compound 615593]
0.97	−1.3	–	–	–	CCCCCCC1CC(=O)C1(Cl)Cl (stereo not shown) [Compound 666526]
0.95	14.3	–	–	–	COc1ccc2cccc(C(=N)c3ccc(C)c4c3CCC4)c2c1 [Compound 625590]
–	–	−32.9	1.09	–	Cc1nc(-c2cccnc2)sc1C(=O)/C=C/c1ccc(Cl)cc1Cl [Compound 640580]
–	–	−4.6	1.02	–	Cc1nn(-c2ccccc2)c2c1CC(=O)Nc1ccccc1-2 [Compound 662553]
–	–	−5.5	0.78	–	O=C1C=C(N2CCNCC2)C(=O)c2c(O)ccc(O)c21 [Compound 658144]
1.11	–	–	–	54.2	[Mo] [Compound 622124]
0.99	2.5	–	–	–	O=C(CC1(O)C(=O)Nc2c(Cl)cc(Cl)cc21)c1cccc2ccccc12 (stereo not shown) [Compound 635328]
–	–	6.8	0.97	–	CC1=C(C(=O)NCc2ccccc2)C(c2ccccc2O)C(C(=O)NCc2ccccc2)=C(C)N1 [Compound 634928]
